Data published in PMC8746632, “Design and Synthesis of New Thiophene/Thieno[2,3-d]pyrimidines along with Their Cytotoxic Biological Evaluation as Tyrosine Kinase Inhibitors in Addition to Their Apoptotic and Autophagic Induction” (Molecules, 2021).

What follows are compounds tested against T1, FLT3 kinase (Fms-like tyrosine kinase 3) (Homo sapiens, UniProt P36888) (assay: FLT3 Kinase Assay Kit, ADP production, luminescence, dose response).
T1 sequence (P36888 27-993): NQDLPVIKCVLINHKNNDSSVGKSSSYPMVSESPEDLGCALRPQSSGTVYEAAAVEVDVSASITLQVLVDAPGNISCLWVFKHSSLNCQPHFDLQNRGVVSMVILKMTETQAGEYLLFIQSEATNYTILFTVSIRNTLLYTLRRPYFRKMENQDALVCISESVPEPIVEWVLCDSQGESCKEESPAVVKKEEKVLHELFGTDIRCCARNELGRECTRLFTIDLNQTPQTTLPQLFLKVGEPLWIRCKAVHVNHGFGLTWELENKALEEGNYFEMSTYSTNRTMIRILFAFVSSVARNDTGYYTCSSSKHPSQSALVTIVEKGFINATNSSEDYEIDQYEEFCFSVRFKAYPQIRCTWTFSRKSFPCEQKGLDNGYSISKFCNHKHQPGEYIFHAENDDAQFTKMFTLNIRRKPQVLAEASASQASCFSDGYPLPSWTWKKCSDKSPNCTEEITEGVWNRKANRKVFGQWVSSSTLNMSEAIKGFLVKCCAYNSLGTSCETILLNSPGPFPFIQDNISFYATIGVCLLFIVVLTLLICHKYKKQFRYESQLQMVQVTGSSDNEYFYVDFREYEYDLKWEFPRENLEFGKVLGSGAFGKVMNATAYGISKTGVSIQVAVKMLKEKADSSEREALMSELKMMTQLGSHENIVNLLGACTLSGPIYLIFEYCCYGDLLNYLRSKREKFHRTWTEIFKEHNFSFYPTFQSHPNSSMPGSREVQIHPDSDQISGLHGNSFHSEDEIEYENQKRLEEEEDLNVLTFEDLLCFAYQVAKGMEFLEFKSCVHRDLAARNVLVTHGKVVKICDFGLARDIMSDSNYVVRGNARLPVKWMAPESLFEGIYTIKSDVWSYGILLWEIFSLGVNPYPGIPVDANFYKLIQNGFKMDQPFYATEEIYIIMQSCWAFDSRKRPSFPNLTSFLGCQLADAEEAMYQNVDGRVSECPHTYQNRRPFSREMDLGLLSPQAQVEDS
Format: biochemical

| Compound | IC50 [µM] |
| --- | --- |
| O=C(CCl)NNc1ncnc2sc3c(c12)CCCC3 [compound 5, 2-Chloro-N′-(5,6,7,8,tetrahydrobenzo[4,5]thieno[2,3-d]pyrimidin-4-yl)acetohydrazide] | 32.4 ± 5.5 |
| CCOC(=O)c1c(NC(=O)CCl)sc2c1CCCC2 [compound 10, 10] | 40 ± 5.5 |
| CC(C)(C)c1cc(Nc2ncnc3sc4c(c23)CCCC4)on1 [9b, N-(3-tert-butylisoxazol-5-yl)-5,6,7,8-tetrahydrobenzo[4,5]thieno[2,3-d]pyrimidin-4-amine] | 39.6 ± 4.6 |
| CC1=CC(=O)N(Nc2ncnc3sc4c(c23)CCCC4)C1=O [compound 8, 3-Methyl-1-(5,6,7,8-tetrahydrobenzo[4,5]thieno[2,3-d]pyrimidin-4-ylamino)-1H-pyrrole-2,5-dione] | 40.5 ± 6.3 |
